Test results reported in patent publication US8221762B2, “Naturally processed measles virus peptides from class II HLA molecules” (priority 2004, dated 2012).

Tests used:
[1] = test system: PBMC of subjects previously immunized with MMR-II vaccine; assay: T cell proliferation assay ([3H]-thymidine, 4 days, SI>2 positive), Example 3; conditions: for subjects with stimulation index greater than 2 (positive lymphoproliferative response) / stimulation index, median / stimulation index, range: 131 subjects (MV-P2 130, MV-F 43); for stimulation index, median / stimulation index, range: peptides 20 μg/ml, MV 50 pfu/ml, 4 days
Method: Briefly, study participants were enrolled as part of a larger stratified random sample study to assess associations between HLA genes and immune response to measles-mumps-rubella-II (MMR-II) vaccine in healthy, school-age children and young adults (ages 12 to 18 years). To evaluate the cellular responses to measles peptides, 131 subjects were used. In addition, a random subset of 43 individuals was tested for reactivity to a control measles fusion (F) peptide. All enrolled subjects had been previously immunized with two doses of MMR-II vaccine (Merck Research, West Point, Pa.) containing the attenuated Edmonston strain of MV. All but four of these participants were Caucasian and all subjects resided in a geographic area where no wild-type MV had circulated in the community during the subjects' lifetimes.
In brief, peripheral blood mononuclear cells (PBMC) were separated from heparinized blood by Ficoll-Hypaque (Sigma, St. Louis, Mo.) density gradient centrifugation and washed in RPMI 1640 medium (Celox Laboratories, Inc., St. Paul, Minn.) supplemented with 2 mM L-glutamine, 100 μg/ml streptomycin, 100 U/ml penicillin and 8% fetal calf serum (Life Technologies, Gaithersburg, Md.). Measles virus, MV-P1, MV-P2, and MV-F specific T cell responses were measures by proliferation of PBMC (2×10^5) incubated in RPMI-1640 medium, supplemented with 5% autologous sera, with live attenuated MV (50 pfu/ml, positive control) or synthetic peptides (20 μg/ml) compared to unstimulated cell control wells. Phytohemagglutinin (PHA, 5 μg/ml) was used to assess cell vitality. Only assays in which PBMC responded to PHA were accepted. T lymphocyte proliferation was measured after 4 days by [^3H]-tritiated thymidine uptake. Cells were then harvested onto glass fiber filters, using a 96-well harvesting system (Skatron Instruments, Norway). The amount of incorporated radioactivity was determined by a liquid scintillation counter (Packard Instrument Company, Boston, Mass.). We used six replicates of counts per minute (cpm) values for unstimulated cells, and three replicates each for T cells stimulated with peptides and live measles vaccine. For each subject, median cpm were calculated for unstimulated cells, as well as for cells stimulated with MV-P1, MV-P2, MV-F and measles. Results were then expressed as antigen-specific stimulation indices (SI), defined as the ratio of the median cpm of antigen-stimulated wells to the median cpm of unstimulated control wells. […] SI>2 was arbitrarily selected prior to the study as an indication of the presence of reactive peptide specific memory T cells, and SI<2 as an indicator of the lack of memory T lymphocytes to measles-derived peptides (Pauksen, et al., Bone Marrow Transplant 20:317-323, 1997).
Three outcomes were of primary interest: T cell proliferation (as measured by stimulation indices) induced separately by live MV, the MV-P1 peptide, and the MV-P2 peptide variant. Data were descriptively summarized using frequencies and percentages for all categorical variables, and medians and ranges for all continuous variables.

[2] = test system: PBMC from subjects previously immunized with MMR-II vaccine; assay: T cell proliferation assay ([3H]-thymidine, 3 days, SI cut point 3.0), Example 1; type: cell-based, human
Source text: Study participants included ninety-five healthy residents of Olmsted County, Minn., aged 11 to 18 years. […] Mononuclear leukocytes were isolated by Ficoll-Hypaque (Amersham) density gradient centrifugation.
For descriptive analyses, we used medians and ranges for continuous variables and frequencies for categorical variables. We compared cpm for MV-stimulated, MV-P1-stimulated and MV-P2-stimulated cells with unstimulated cells using Wilcoxon signed rank tests. Associations between the continuously distributed stimulation indices for MV-P1, MV-P2 peptides, and MV were determined using Spearman rank correlation coefficients. Stimulation indices were subsequently dichotomized into positive or negative using a cut point of 3.0. We then compared MV positivity with MV-P1 and MV-P2 positivity using estimates of sensitivity.

[3] = test system: PBMC of subjects previously immunized with MMR-II vaccine; assay: IL-4 supernatant cytokine response (ELISA) to measles virus and synthetic measles peptides; type: cell-based, human; conditions: for Median secretion value IL-4: stimulated minus control cells
Method: (§1) To evaluate the immunogenicity of measles-derived peptides, 281 of these subjects (age 12 to 18 years) were studied.
(§2) Cryopreserved PBMC were used to measure cytokine responses to measles-derived peptides. We thawed cryopreserved PBMC at a concentration of 1×10^7 cells/mL using standard protocol. The vials were rapidly thawed in a 37° C. water bath and then washed twice with 10× volume of complete RPMI 1640 media supplemented with 10% FCS at 700 rpm for 5 minutes. The final cell pellet was resuspended in complete RPMI media containing penicillin-streptomycin (100 U/mL) and supplemented with 5% normal human AB sera (Ervin Sci., Santa Ana, Calif.). For IFN-γ determination, thawed PBMC were cultured at a concentration of 2×10^5 in RPMI containing 5% normal human AB sera with or without measles peptides (10 μg/well) and MV (positive control) at a moi of 0.5 for 6 days. For IL-4 determination in cell culture supernatants, we cultured thawed PBMC at a concentration of 4×10^5 in RPMI media, supplemented with 5% normal human AB sera. Cells were cultured in the presence of 2 μg/mL of IL-4 receptor antibody (R&D Systems, Minneapolis, Minn.) (Ekerfelt, et al., J. Immunol. Methods 260:55-67, 2002) with or without synthetic measles-derived peptides (10 μg/well) and MV (positive control) at a moi of 0.1 for 6 days. Cell culture supernatants were collected in a volume of 150 μl/well for both IFN-γ and IL-4 and were frozen at […] until assayed. The culture supernatants were assayed using a standard ELISA protocol (OptiEtA Human IFN-γ and IL-4, PharMingen, San Diego, Calif.) at a dilution of 1:1 in PBS containing 10% FCS. ELISA plates (Immulon-4, DYNEX Technologies Inc, Chantilly, Va.) were coated with capture IFN-γ or IL-4 mAb and incubated overnight at 4° C. The antibody-coated plates were incubated with diluted supernatant samples for 2 hours at room temperature followed by incubation with biotinylated mouse anti-human IFN-γor IL-4 conjugated to avidin-horseradish peroxidase for 1 hour at room temperature. The absorbance of the product was read using a microplate reader (Molecular Devices, Sunnyvale, Calif.) at 450 nm. The IFN-γ and IL-4 concentration of test samples was calculated by reference to the standard curve. Unstimulated and MV-stimulated secretion measurements for IFN-γ were performed in triplicate, while all other secretion measurements for both IFN-γ and IL-4 were performed in duplicate. Individual-specific values were then summarized by taking means of the duplicate or triplicate values. Mean background levels of IFN-γ and IL-4 cytokine production in cultures not stimulated with measles peptides or MV was subtracted from the mean antigen-induced responses to produce “corrected” secretion values. Negative corrected values indicate that the unstimulated secretion levels were, on average, higher than the stimulated secretion levels.
(§3) Two criteria were established to define positive responses for secreted IFN-γ and IL-4 cytokines using ELISA.

[4] = test system: PBMC of subjects previously immunized with MMR-II vaccine; assay: IFN-γ supernatant cytokine response (ELISA) to measles virus and synthetic measles peptides; type: cell-based, human; conditions: for Median secretion value IFN-γ: stimulated minus control cells
Method: as §1, §2, §3

[5] = 95 subjects, peptides 20 μg/ml, MV 50 PFU/well
[6] = 281 subjects, stimulated cells minus unstimulated cells

With CC[C@H](C)[C@H](NC(=O)[C@H](CCC(=O)O)NC(=O)CNC(=O)CNC(=O)[C@H](CCC(=O)O)NC(=O)[C@H](C)NC(=O)[C@@H](NC(=O)[C@H](CCC(=O)O)NC(=O)[C@@H](NC(=O)[C@H](CC(=O)O)NC(=O)[C@H](CO)NC(=O)[C@H](C)N)C(C)C)[C@@H](C)O)C(=O)N[C@@H](Cc1c[nH]cn1)C(=O)N[C@@H](CCCCN)C(=O)N[C@@H](CC(C)C)C(=O)N[C@@H](CC(C)C)C(=O)N[C@@H](CCCNC(=N)N)C(=O)N[C@@H](CC(C)C)C(=O)N[C@@H](CCC(N)=O)C(=O)O [MV-P2] the “subjects with stimulation index greater than 2 (positive lymphoproliferative response)” value [1] was 17%, the “stimulation index, median” value [1] was 1.2 and the “stimulation index, range” value [1] was 0.4-16.2. The “MV-P1 responders who also responded to the peptide” value ([1]; among the 52 subjects who responded to the MV-P1 peptide) was 23%, the “subjects with stimulation index greater than 3.0 (recognized)” value ([2]; 95 subjects) was 5% and the “stimulation index, median” value [2, 5] was 1.2. The “stimulation index, range” value [2, 5] was 0.5-16.2 and the “median cpm value, lymphoproliferative assay” value ([2]; 95 subjects, peptides 20 μg/ml, live attenuated MV 50 PFU/well, 3 days) was 359 cpm.

With “MV-F: randomly chosen 14 amino acid control peptide of the MV F protein (PLRHQATTASSTKP) [reference compound]” the “subjects with stimulation index greater than 2 (positive lymphoproliferative response)” value [1] was 11%, the “stimulation index, median” value [1] was 1 and the “stimulation index, range” value [1] was 0-3. The “proliferation in immunized healthy subjects” value ([2]; irrelevant control peptide, data not shown) was “little or no proliferation”.

With SAGKVSSTLASELG [MV-N] the “IL-4 % Response (>10 pg/mL)” value ([3]; 281 subjects, peptides 10 μg/well, MV moi 0.1, 6 days) was 23.1%, the “IL-4 Median level” value [3, 6] was 2.8 pg/mL and the “Median secretion value IL-4” value ([3]; All other HLA-DRB1 alleles) was -0.5 pg/mL. The “Median secretion value IL-4” value ([3]; HLA-DRB1 allele *0101) was 4.3 pg/mL, the “Median secretion value IL-4” value ([3]; HLA-DRB1 allele *0102) was 4.6 pg/mL and the “Median secretion value IL-4” value ([3]; HLA-DRB1 allele *0103) was 1.3 pg/mL. For the same compound, the “Median secretion value IL-4” value ([3]; HLA-DRB1 allele *0301) was 2.8 pg/mL, the “Median secretion value IL-4” value ([3]; HLA-DRB1 allele *0401) was 4.3 pg/mL and the “Median secretion value IL-4” value ([3]; HLA-DRB1 allele *0402) was -1.0 pg/mL. For the same compound, the “Median secretion value IL-4” value ([3]; HLA-DRB1 allele *0404) was 0.0 pg/mL, the “Median secretion value IL-4” value ([3]; HLA-DRB1 allele *0407) was 4.6 pg/mL and the “Median secretion value IL-4” value ([3]; HLA-DRB1 allele *0701) was 1.7 pg/mL. For the same compound, the “Median secretion value IL-4” value ([3]; HLA-DRB1 allele *0801) was 1.7 pg/mL, the “Median secretion value IL-4” value ([3]; HLA-DRB1 allele *0901) was -1.6 pg/mL and the “Median secretion value IL-4” value ([3]; HLA-DRB1 allele *1001) was 2.1 pg/mL. For the same compound, the “Median secretion value IL-4” value ([3]; HLA-DRB1 allele *1101) was 4.4 pg/mL, the “Median secretion value IL-4” value ([3]; HLA-DRB1 allele *1103) was 15.5 pg/mL and the “Median secretion value IL-4” value ([3]; HLA-DRB1 allele *1104) was 4.4 pg/mL. The “Median secretion value IL-4” value ([3]; HLA-DRB1 allele *1201) was 5.4 pg/mL, the “Median secretion value IL-4” value ([3]; HLA-DRB1 allele *1301) was 3.6 pg/mL and the “Median secretion value IL-4” value ([3]; HLA-DRB1 allele *1302) was 2.2 pg/mL. For the same compound, the “Median secretion value IL-4” value ([3]; HLA-DRB1 allele *1303) was -12.9 pg/mL, the “Median secretion value IL-4” value ([3]; HLA-DRB1 allele *1401) was 3.7 pg/mL and the “Median secretion value IL-4” value ([3]; HLA-DRB1 allele *1501) was 3.2 pg/mL. For the same compound, the “Median secretion value IL-4” value ([3]; HLA-DRB1 allele *03011) was 1.7 pg/mL, the “Median secretion value IL-4” value ([3]; Overall (281)) was 2.8 pg/mL and the “MV-P IL-4 responders in whom peptide-specific IL-4 responses were also detected” value ([3]; among the 54 subjects who responded to the MV-P peptide) was “half”. The “MV IL-4 responders who also responded to the peptide” value ([3]; among the 143 subjects with IL-4 production from MV-stimulated PBMC) was 28.7%, the “IFN-γ % Response (>20 pg/mL)” value ([4]; 281 subjects, peptides 10 μg/well, MV moi 0.5, 6 days) was 15.3% and the “IFN-γ Median level” value [4, 6] was 1.9 pg/mL. For the same compound, the “Median secretion value IFN-γ” value ([4]; All other HLA-DRB1 alleles) was 4.1 pg/mL, the “Median secretion value IFN-γ” value ([4]; HLA-DRB1 allele *0101) was -1.8 pg/mL and the “Median secretion value IFN-γ” value ([4]; HLA-DRB1 allele *0102) was 7.6 pg/mL. For the same compound, the “Median secretion value IFN-γ” value ([4]; HLA-DRB1 allele *0103) was 2.4 pg/mL, the “Median secretion value IFN-γ” value ([4]; HLA-DRB1 allele *0301) was 1.8 pg/mL and the “Median secretion value IFN-γ” value ([4]; HLA-DRB1 allele *0401) was -0.7 pg/mL. For the same compound, the “Median secretion value IFN-γ” value ([4]; HLA-DRB1 allele *0402) was 10.6 pg/mL, the “Median secretion value IFN-γ” value ([4]; HLA-DRB1 allele *0404) was 2.8 pg/mL and the “Median secretion value IFN-γ” value ([4]; HLA-DRB1 allele *0407) was 8.4 pg/mL. The “Median secretion value IFN-γ” value ([4]; HLA-DRB1 allele *0701) was -1.1 pg/mL, the “Median secretion value IFN-γ” value ([4]; HLA-DRB1 allele *0801) was 4.1 pg/mL and the “Median secretion value IFN-γ” value ([4]; HLA-DRB1 allele *0901) was 3.1 pg/mL. The “Median secretion value IFN-γ” value ([4]; HLA-DRB1 allele *1001) was -1.8 pg/mL, the “Median secretion value IFN-γ” value ([4]; HLA-DRB1 allele *1101) was -4.4 pg/mL and the “Median secretion value IFN-γ” value ([4]; HLA-DRB1 allele *1103) was 3.0 pg/mL. The “Median secretion value IFN-γ” value ([4]; HLA-DRB1 allele *1104) was 3.1 pg/mL, the “Median secretion value IFN-γ” value ([4]; HLA-DRB1 allele *1201) was -4.5 pg/mL and the “Median secretion value IFN-γ” value ([4]; HLA-DRB1 allele *1301) was 2.2 pg/mL. For the same compound, the “Median secretion value IFN-γ” value ([4]; HLA-DRB1 allele *1302) was -1.9 pg/mL, the “Median secretion value IFN-γ” value ([4]; HLA-DRB1 allele *1303) was 13.1 pg/mL and the “Median secretion value IFN-γ” value ([4]; HLA-DRB1 allele *1401) was 0.2 pg/mL. The “Median secretion value IFN-γ” value ([4]; HLA-DRB1 allele *1501) was 4.1 pg/mL, the “Median secretion value IFN-γ” value ([4]; HLA-DRB1 allele *03011) was 9.1 pg/mL and the “Median secretion value IFN-γ” value ([4]; Overall (281)) was 1.9 pg/mL. The “MV-P IFN-γ responders who also produced IFN-γ to the peptide” value ([4]; among the 157 subjects who responded to the MV-P peptide) was 21% and the “MV IFN-γ responders who also produced IFN-γ to the peptide” value ([4]; among the 185 subjects who responded to MV) was 21.1%.
